Measured values as given in the NIST ThermoML archive (doi:10.1016/j.jct.2013.06.020).

Assay: mn = molality of the nth substance listed, in mol/kg
Details: 298.15 K, 101 kPa, Liquid; for speed of sound: Sing-around technique in a fixed-path interferometer; for mass density: Vibrating tube method

O=Cc1ccco1 [2-furaldehyde] + O
Details	mass density [kg/m3]	speed of sound [m/s]
m1 = 0.0542	998.113	1499.1
m1 = 0.0556	998.137	1499.2
m1 = 0.0607	998.217	1499.4
m1 = 0.0653	998.295	1499.6
m1 = 0.0686	998.351	1499.7
m1 = 0.075	998.453	1500
m1 = 0.0801	998.537	1500.2
m1 = 0.089	998.69	1500.6
m1 = 0.1095	999.037	1501.4
m1 = 0.1179	999.174	1501.8
m1 = 0.1332	999.425	1502.3
m1 = 0.1717	1000.07	1504
m1 = 0.2053	1000.62	1505.3
m1 = 0.2309	1001.03	1506.1
m1 = 0.3092	1002.32	1508.9
m1 = 0.3436	1002.87	1510
m1 = 0.4132	1003.97	1512.3
m1 = 0.5112	1005.51	1515.2
m1 = 0.5559	1006.19	1516.5
m1 = 0.6557	1007.7	1518.7
m1 = 0.8368	1010.35	1522
m1 = 0.9225	1011.55	1523.5

OCc1ccco1 [2-hydroxymethylfuran] + O
Details	mass density [kg/m3]	speed of sound [m/s]
m1 = 0.0475	997.854	1498.9
m1 = 0.0537	997.937	1499.3
m1 = 0.0559	997.967	1499.4
m1 = 0.0625	998.054	1499.7
m1 = 0.0688	998.143	1500
m1 = 0.0781	998.269	1500.3
m1 = 0.0999	998.571	1501.3
m1 = 0.1027	998.607	1501.5
m1 = 0.12	998.847	1502.2
m1 = 0.1433	999.158	1503.3
m1 = 0.1651	999.552	1504.3
m1 = 0.2327	1000.39	1507.1
m1 = 0.2468	1000.58	1507.8
m1 = 0.4458	1003.25	1515.9
m1 = 0.618	1005.5	1522.3
m1 = 0.8613	1008.56	1530.4
m1 = 1.054	1010.95	1535.9
m1 = 1.236	1012.93	1540.5
m1 = 1.441	1015.25	1545.5
m1 = 1.656	1017.56	1550
m1 = 1.835	1019.32	1554
m1 = 2.062	1021.73	1559.4
m1 = 2.545	1026.13	1569.5
m1 = 2.874	1028.8	1577.2

OCC1CCCO1 (configuration not stated) [2-tetrahydrofurylmethanol] + O
Details	mass density [kg/m3]	speed of sound [m/s]
m1 = 0.0115	997.245	1497.2
m1 = 0.0127	997.265	1497.4
m1 = 0.0141	997.289	1497.6
m1 = 0.0149	997.301	1497.7
m1 = 0.0183	997.356	1498.1
m1 = 0.0193	997.373	1498.2
m1 = 0.0223	997.421	1498.4
m1 = 0.0281	997.511	1498.5
m1 = 0.0286	997.518	1498.5
m1 = 0.0337	997.596	1498.7
m1 = 0.0441	997.835	1499.3
m1 = 0.0462	997.862	1499.5
m1 = 0.0496	997.893	1499.6
m1 = 0.0584	998.028	1500.3
m1 = 0.0686	998.155	1500.9
m1 = 0.0731	998.209	1501.1
m1 = 0.0948	998.467	1502.4
m1 = 0.1082	998.66	1503.2
m1 = 0.1478	999.071	1505.6
m1 = 0.2077	999.663	1509
m1 = 0.2552	1000.11	1511.8
m1 = 0.35	1000.98	1517.1
m1 = 0.4904	1002.2	1524.9
m1 = 0.678	1003.77	1534.7
m1 = 1.16	1007.55	1557.2
m1 = 1.996	1013.36	1589.1
m1 = 2.959	1020.27	1614.9
m1 = 3.175	1021.74	1620.8
m1 = 3.559	1024.37	1630.1
m1 = 5.556	1036.45	1672.3

Cc1ccc(C=O)o1 [5-methylfurfural] + O
Details	mass density [kg/m3]	speed of sound [m/s]
m1 = 0.0067	997.297	1497
m1 = 0.0069	997.3	1497
m1 = 0.0081	997.319	1497.1
m1 = 0.0083	997.323	1497.2
m1 = 0.0084	997.325	1497.2
m1 = 0.0098	997.344	1497.2
m1 = 0.0103	997.35	1497.2
m1 = 0.0109	997.355	1497.3
m1 = 0.0122	997.373	1497.3
m1 = 0.0137	997.397	1497.4
m1 = 0.016	997.425	1497.6
m1 = 0.0179	997.454	1497.7
m1 = 0.0223	997.516	1497.9
m1 = 0.0257	997.563	1498.1
m1 = 0.0292	997.613	1498.3
m1 = 0.0462	997.848	1499.2
m1 = 0.0557	997.966	1499.6
m1 = 0.0608	998.055	1500
m1 = 0.0825	998.35	1501.1
m1 = 0.1136	998.767	1503
m1 = 0.1363	998.986	1503.8
m1 = 0.1454	999.221	1504.2
m1 = 0.1666	999.516	1505.2
m1 = 0.204	1000.01	1506.9
m1 = 0.2877	1001.14	1511
